Reference: PubChem BioAssay AID1745844 (Carcinogenic Potency Database (CPDB), 2022)
Calls of active or inactive are those of the source. No rule for the calls is given here.

Test system: rodent lifetime carcinogenesis bioassay, tumor incidence TD50
Experiment: chronic cancer bioassays in animals – CPDB, compiled studies (AID 1745844)

## CC(C)C[C@H]1C(=O)N2CCC[C@H]2[C@]2(O)O[C@](NC(=O)[C@@H]3C=C4c5cccc6[nH]c(Br)c(c56)C[C@H]4N(C)C3)(C(C)C)C(=O)N12
mouse, strain OF1, females, in feed, site: any site (literature study), lesion: several types, types named in the paper, dosed 74 weeks, study length 74 weeks
  TD50: 175 mg/kg/day (inactive)
mouse, strain OF1, females, in feed, site: liver, lesion: neoplastic nodule, dosed 74 weeks, study length 74 weeks
  carcinogen call: negative (inactive)
mouse, strain OF1, females, in feed, site: lung, lesion: adenoma, dosed 74 weeks, study length 74 weeks
  carcinogen call: negative (inactive)
mouse, strain OF1, males, in feed, site: any site (literature study), lesion: several types, types named in the paper, dosed 74 weeks, study length 74 weeks
  TD50: 68 mg/kg/day (inactive)
mouse, strain OF1, males, in feed, site: liver, lesion: neoplastic nodule, dosed 74 weeks, study length 74 weeks
  TD50: 308 mg/kg/day (inactive)
mouse, strain OF1, males, in feed, site: lung, lesion: adenoma, dosed 74 weeks, study length 74 weeks
  TD50: 618 mg/kg/day (inactive)
rat, strain OFA (Sprague-Dawley derived), females, in feed, site: uterus, lesion: malignant tumor, dosed 100 weeks, study length 100 weeks
  TD50: 117 mg/kg/day
rat, strain OFA (Sprague-Dawley derived), females, in feed, site: uterus, lesion: several types, types named in the paper, dosed 100 weeks, study length 100 weeks
  TD50: 33.7 mg/kg/day

## Nc1ccc(Cc2ccc(N)c(Cl)c2)cc1Cl
mouse, strain CD-1 HaM/ICR, females, in feed, site: any site (literature study), lesion: several types, types named in the paper, dosed 77 weeks, study length 90 weeks
  TD50: 52.8 mg/kg/day
mouse, strain CD-1 HaM/ICR, females, in feed, site: liver, lesion: hepatoma, dosed 77 weeks, study length 90 weeks
  TD50: 66.6 mg/kg/day
mouse, strain CD-1 HaM/ICR, females, in feed, site: liver, lesion: several types, types named in the paper, dosed 77 weeks, study length 90 weeks
  TD50: 66.6 mg/kg/day
mouse, strain CD-1 HaM/ICR, females, in feed, site: lung, lesion: several types, types named in the paper, dosed 77 weeks, study length 90 weeks
  TD50: 556 mg/kg/day (inactive)
mouse, strain CD-1 HaM/ICR, males, in feed, site: any site (literature study), lesion: several types, types named in the paper, dosed 77 weeks, study length 94 weeks
  TD50: 97.9 mg/kg/day
mouse, strain CD-1 HaM/ICR, males, in feed, site: liver, lesion: several types, types named in the paper, dosed 77 weeks, study length 94 weeks
  TD50: 471 mg/kg/day
mouse, strain CD-1 HaM/ICR, males, in feed, site: lung, lesion: several types, types named in the paper, dosed 77 weeks, study length 94 weeks
  TD50: 342 mg/kg/day (inactive)
rat, strain Charles River CD (Sprague-Dawley), males, in feed, site: any site (literature study), lesion: several types, types named in the paper, dosed 77 weeks, study length 98 weeks
  TD50: 33.4 mg/kg/day
rat, strain Charles River CD (Sprague-Dawley), males, in feed, site: liver, lesion: several types, types named in the paper, dosed 77 weeks, study length 98 weeks
  TD50: 70.1 mg/kg/day

## O=[N+]([O-])c1ccc(-c2nc(N3CCOCC3)c3ccccc3n2)s1
rat, strain Sprague-Dawley, females, in feed, site: any site (literature study), lesion: several types, types named in the paper, dosed 46 weeks, study length 66 weeks
  TD50: 5.03 mg/kg/day

## Cc1cnc(NC(=O)C2=C(O)c3ccccc3S(=O)(=O)N2C)s1
rat, strain Wistar, females, by gavage, site: stomach, lesion: one or several types, types not named, dosed 52 weeks, study length 52 weeks
  carcinogen call: negative (inactive)
rat, strain Wistar, males, by gavage, site: stomach, lesion: one or several types, types not named, dosed 52 weeks, study length 52 weeks
  carcinogen call: negative (inactive)

## C[C@@H]1CCC[C@H](C)N1CCCC(O)(c1ccccc1)c1ccccn1 (some centres undefined)
mouse, strain B6C3F1, females, in feed, site: all sites, lesion: lymphoma, dosed 104 weeks, study length 104 weeks
  TD50: 94.6 mg/kg/day (inactive)
mouse, strain B6C3F1, females, in feed, site: any site (literature study), lesion: several types, types named in the paper, dosed 104 weeks, study length 104 weeks
  carcinogen call: negative (inactive)
mouse, strain B6C3F1, females, in feed, site: liver, lesion: hepatocellular adenoma, dosed 104 weeks, study length 104 weeks
  TD50: 1560 mg/kg/day (inactive)
mouse, strain B6C3F1, females, in feed, site: liver, lesion: hepatocellular carcinoma, dosed 104 weeks, study length 104 weeks
  TD50: 978 mg/kg/day (inactive)
mouse, strain B6C3F1, females, in feed, site: lung, lesion: adenoma, dosed 104 weeks, study length 104 weeks
  TD50: 1980 mg/kg/day (inactive)
mouse, strain B6C3F1, females, in feed, site: lung, lesion: carcinoma, dosed 104 weeks, study length 104 weeks
  carcinogen call: negative (inactive)
mouse, strain B6C3F1, males, in feed, site: any site (literature study), lesion: several types, types named in the paper, dosed 104 weeks, study length 104 weeks
  carcinogen call: negative (inactive)
mouse, strain B6C3F1, males, in feed, site: liver, lesion: hepatocellular adenoma, dosed 104 weeks, study length 104 weeks
  carcinogen call: negative (inactive)
mouse, strain B6C3F1, males, in feed, site: liver, lesion: hepatocellular carcinoma, dosed 104 weeks, study length 104 weeks
  carcinogen call: negative (inactive)
mouse, strain B6C3F1, males, in feed, site: lung, lesion: adenoma, dosed 104 weeks, study length 104 weeks
  TD50: 947 mg/kg/day (inactive)
mouse, strain B6C3F1, males, in feed, site: lung, lesion: carcinoma, dosed 104 weeks, study length 104 weeks
  TD50: 4040 mg/kg/day (inactive)
rat, strain Wistar, females, in feed, site: any site (literature study), lesion: several types, types named in the paper, dosed 104 weeks, study length 104 weeks
  TD50: 440 mg/kg/day (inactive)
rat, strain Wistar, females, in feed, site: liver, lesion: one or several types, types not named, dosed 104 weeks, study length 104 weeks
  carcinogen call: negative (inactive)
rat, strain Wistar, females, in feed, site: pituitary gland, lesion: adenoma, dosed 104 weeks, study length 104 weeks
  TD50: 15.9 mg/kg/day (inactive)
rat, strain Wistar, males, in feed, site: adrenal gland, lesion: cortical adenoma, dosed 104 weeks, study length 104 weeks
  TD50: 104 mg/kg/day (inactive)
rat, strain Wistar, males, in feed, site: any site (literature study), lesion: several types, types named in the paper, dosed 104 weeks, study length 104 weeks
  carcinogen call: negative (inactive)
rat, strain Wistar, males, in feed, site: liver, lesion: one or several types, types not named, dosed 104 weeks, study length 104 weeks
  carcinogen call: negative (inactive)

## N#[N+]c1ccccc1
hamster, strain Syrian Golden, females, by gavage, site: liver, lesion: Kupffer-cell sarcoma, dosed 90 weeks, study length 90 weeks
  TD50: 66.1 mg/kg/day (inactive)
hamster, strain Syrian Golden, females, by gavage, site: liver, lesion: cholangioma, dosed 90 weeks, study length 90 weeks
  TD50: 293 mg/kg/day (inactive)
hamster, strain Syrian Golden, females, by gavage, site: liver, lesion: hemangioma, dosed 90 weeks, study length 90 weeks
  TD50: 66.1 mg/kg/day (inactive)
hamster, strain Syrian Golden, males, by gavage, site: liver, lesion: hemangioma, dosed 90 weeks, study length 90 weeks
  TD50: 293 mg/kg/day (inactive)
mouse, strain Swiss albino, females, by gavage, site: lung, lesion: adenocarcinoma, dosed 52 weeks, study length 141 weeks
  TD50: 39.4 mg/kg/day
mouse, strain Swiss albino, females, by gavage, site: lung, lesion: adenoma, dosed 52 weeks, study length 141 weeks
  TD50: 27.1 mg/kg/day
mouse, strain Swiss albino, females, by gavage, site: lung, lesion: several types, types named in the paper, dosed 52 weeks, study length 141 weeks
  TD50: 16.5 mg/kg/day
mouse, strain Swiss albino, males, by gavage, site: lung, lesion: adenoma, dosed 52 weeks, study length 129 weeks
  TD50: 14.8 mg/kg/day
mouse, strain Swiss albino, males, by gavage, site: lung, lesion: several types, types named in the paper, dosed 52 weeks, study length 129 weeks
  TD50: 12.7 mg/kg/day

## CCCCCCN(N=O)C(N)=O
rat, strain Fischer 344, females, by gavage, site: forestomach, lesion: one or several types, types not named, dosed 50 weeks, study length 104 weeks
  TD50: 0.848 mg/kg/day
rat, strain Fischer 344, females, by gavage, site: lung, lesion: several types, types named in the paper, dosed 50 weeks, study length 104 weeks
  TD50: 2.06 mg/kg/day
rat, strain Fischer 344, females, by gavage, site: mammary gland, lesion: adenocarcinoma, dosed 50 weeks, study length 104 weeks
  TD50: 1.73 mg/kg/day
rat, strain Fischer 344, females, by gavage, site: uterus, lesion: several types, types named in the paper, dosed 50 weeks, study length 104 weeks
  TD50: 0.579 mg/kg/day
rat, strain Fischer 344, males, by gavage, site: all sites, lesion: mesothelioma, dosed 50 weeks, study length 104 weeks
  TD50: 0.745 mg/kg/day
rat, strain Fischer 344, males, by gavage, site: colon, lesion: one or several types, types not named, dosed 50 weeks, study length 104 weeks
  TD50: 2.27 mg/kg/day
rat, strain Fischer 344, males, by gavage, site: forestomach, lesion: one or several types, types not named, dosed 50 weeks, study length 104 weeks
  carcinogen call: positive
rat, strain Fischer 344, males, by gavage, site: lung, lesion: several types, types named in the paper, dosed 50 weeks, study length 104 weeks
  carcinogen call: positive

## CCCCCCC(=O)C/C=C/CCCCCCCC(=O)OC
mouse, strain ST/a, both sexes, in feed, site: all sites, lesion: malignant lymphoma, dosed 42 weeks, study length 84 weeks
  TD50: 2940 mg/kg/day (inactive)

## Nc1ccc(O)c([N+](=O)[O-])c1
mouse, strain B6C3F1, females, in feed, site: any site (literature study), lesion: several types, types named in the paper, dosed 103 weeks, study length 105 weeks
  carcinogen call: negative (inactive)
mouse, strain B6C3F1, females, in feed, site: liver, lesion: hepatocellular adenoma + hepatocellular carcinoma + neoplastic nodule, dosed 103 weeks, study length 105 weeks
  TD50: 3650 mg/kg/day
mouse, strain B6C3F1, males, in feed, site: any site (literature study), lesion: several types, types named in the paper, dosed 103 weeks, study length 105 weeks
  carcinogen call: negative (inactive)
mouse, strain B6C3F1, males, in feed, site: liver, lesion: hepatocellular adenoma + hepatocellular carcinoma + neoplastic nodule, dosed 103 weeks, study length 105 weeks
  TD50: 2250 mg/kg/day
rat, strain Fischer 344, females, in feed, site: urinary bladder, lesion: transitional-cell carcinoma, dosed 103 weeks, study length 105 weeks
  TD50: 1880 mg/kg/day
rat, strain Fischer 344, males, in feed, site: any site (literature study), lesion: several types, types named in the paper, dosed 103 weeks, study length 105 weeks
  TD50: 270 mg/kg/day
rat, strain Fischer 344, males, in feed, site: urinary bladder, lesion: transitional-cell carcinoma, dosed 103 weeks, study length 105 weeks
  TD50: 309 mg/kg/day

## CCN(Cc1cccc(S(=O)(=O)[O-])c1)c1ccc(C(=C2C=CC(=[N+](C)C)C=C2)c2ccc(N(CC)Cc3cccc(S(=O)(=O)O)c3)cc2)cc1
mouse, strain ASH-CS1, females, in feed, site: liver, lesion: one or several types, types not named, dosed 80 weeks, study length 80 weeks
  carcinogen call: negative (inactive)
mouse, strain ASH-CS1, females, in feed, site: lung, lesion: adenoma, dosed 80 weeks, study length 80 weeks
  TD50: 1910 mg/kg/day (inactive)
mouse, strain ASH-CS1, males, in feed, site: liver, lesion: one or several types, types not named, dosed 80 weeks, study length 80 weeks
  carcinogen call: negative (inactive)
mouse, strain ASH-CS1, males, in feed, site: lung, lesion: adenocarcinoma, dosed 80 weeks, study length 80 weeks
  TD50: 4660 mg/kg/day (inactive)
mouse, strain ASH-CS1, males, in feed, site: lung, lesion: adenoma, dosed 80 weeks, study length 80 weeks
  carcinogen call: negative (inactive)
rat, strain Sprague-Dawley albino, females, in feed, site: any site (literature study), lesion: malignant tumor, dosed 52 weeks, study length 52 weeks
  TD50: 568 mg/kg/day
rat, strain Sprague-Dawley albino, females, in feed, site: any site (literature study), lesion: several types, types named in the paper, dosed 52 weeks, study length 52 weeks
  TD50: 660 mg/kg/day
rat, strain Sprague-Dawley albino, females, in feed, site: ear duct, lesion: carcinoma, dosed 52 weeks, study length 52 weeks
  TD50: 1600 mg/kg/day
rat, strain Sprague-Dawley albino, females, in feed, site: mammary gland, lesion: carcinoma, dosed 52 weeks, study length 52 weeks
  TD50: 1140 mg/kg/day
rat, strain Sprague-Dawley, females, in feed, site: any site (literature study), lesion: several types, types named in the paper, dosed 51 weeks, study length 52 weeks
  TD50: 418 mg/kg/day
rat, strain Sprague-Dawley, females, in feed, site: mammary gland, lesion: carcinoma, dosed 51 weeks, study length 52 weeks
  TD50: 573 mg/kg/day
rat, strain Sprague-Dawley, females, in feed, site: skin, lesion: squamous-cell carcinoma, dosed 51 weeks, study length 52 weeks
  TD50: 1100 mg/kg/day
